{"source": "ChEMBL document CHEMBL1201862", "about": "“PubChem BioAssay data set” (2004)", "assay_in_all_cases": "DTP human tumour cell line panel, 48 h", "key": {"M14": {"system": "M14"}, "OVCAR-8": {"system": "OVCAR-8"}, "SK-MEL-2": {"system": "SK-MEL-2"}, "NCI/ADR-RES": {"system": "NCI/ADR-RES"}, "HL-60": {"system": "HL-60"}, "TK-10": {"system": "TK-10"}, "BT-549": {"system": "BT-549"}, "SW-620": {"system": "SW-620"}, "MOLT-4": {"system": "MOLT-4"}, "MCF7": {"system": "MCF7"}, "NCI-H226": {"system": "NCI-H226"}, "Hs-578T": {"system": "Hs-578T"}, "SF-539": {"system": "SF-539"}, "Malme-3M": {"system": "Malme-3M"}, "CCRF-CEM": {"system": "CCRF-CEM"}, "SN12C": {"system": "SN12C"}, "HOP-62": {"system": "HOP-62"}, "A498": {"system": "A498"}, "COLO 205": {"system": "COLO 205"}, "A549": {"system": "A549"}, "HCT-15": {"system": "HCT-15"}, "UACC-257": {"system": "UACC-257"}, "DU-145": {"system": "DU-145"}, "NCI-H522": {"system": "NCI-H522"}, "LOX IMVI": {"system": "LOX IMVI"}, "SNB-19": {"system": "SNB-19"}, "IGROV-1": {"system": "IGROV-1"}, "SNB-75": {"system": "SNB-75"}, "SF-295": {"system": "SF-295"}, "SK-MEL-28": {"system": "SK-MEL-28"}, "SK-MEL-5": {"system": "SK-MEL-5"}, "HT-29": {"system": "HT-29"}, "MDA-MB-435": {"system": "MDA-MB-435"}, "UO-31": {"system": "UO-31"}, "RXF 393": {"system": "RXF 393"}, "SK-OV-3": {"system": "SK-OV-3"}, "HCT-116": {"system": "HCT-116"}, "HOP-92": {"system": "HOP-92"}, "ACHN": {"system": "ACHN"}, "OVCAR-4": {"system": "OVCAR-4"}, "786-0": {"system": "786-0"}, "OVCAR-5": {"system": "OVCAR-5"}, "KM12": {"system": "KM12"}, "SF-268": {"system": "SF-268"}, "U-251": {"system": "U-251"}, "PC-3": {"system": "PC-3"}, "UACC-62": {"system": "UACC-62"}, "NCI-H23": {"system": "NCI-H23"}, "OVCAR-3": {"system": "OVCAR-3"}, "NCI-H460": {"system": "NCI-H460"}, "SR": {"system": "SR"}, "T47D": {"system": "T47D"}, "MDA-MB-231": {"system": "MDA-MB-231"}, "K562": {"system": "K562"}, "MDA-N": {"system": "MDA-N"}, "CAKI-1": {"system": "CAKI-1"}}, "note": "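Where inhibition never reached the appropriate level, the endpoint shown equals the highest concentration tested. Otherwise, values were interpolated linearly from a five-concentration, 48-hour dose response in 96-well plates. Here, GI50 denotes the concentration required for 50% inhibition of growth.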 Active and inactive are the calls of the source. Rule as the data show it: active = GI50 up to about 1.1 µM and inactive = higher.", "data": [{"smiles": "COc1cc(S(=O)(=O)Nc2nc(-c3ccc(N4C(=O)/C(=C\\c5cccs5)N=C4c4ccccc4)cc3)cs2)ccc1Cl", "values": [{"measurement": "GI50", "setting": "M14", "result": "> 100 µM (inactive)"}, {"measurement": "GI50", "setting": "OVCAR-8", "result": "46 µM (inactive)"}, {"measurement": "GI50", "setting": "SK-MEL-2", "result": "29.2 µM (inactive)"}, {"measurement": "GI50", "setting": "NCI/ADR-RES", "result": "> 100 µM (inactive)"}, {"measurement": "GI50", "setting": "HL-60", "result": "36.7 µM (inactive)"}, {"measurement": "GI50", "setting": "TK-10", "result": "> 100 µM (inactive)"}, {"measurement": "GI50", "setting": "BT-549", "result": "34.5 µM (inactive)"}, {"measurement": "GI50", "setting": "SW-620", "result": "> 100 µM (inactive)"}, {"measurement": "GI50", "setting": "MOLT-4", "result": "43.9 µM (inactive)"}, {"measurement": "GI50", "setting": "MCF7", "result": "40 µM (inactive)"}, {"measurement": "GI50", "setting": "NCI-H226", "result": "> 100 µM (inactive)"}, {"measurement": "GI50", "setting": "Hs-578T", "result": "24 µM (inactive)"}, {"measurement": "GI50", "setting": "SF-539", "result": "49.9 µM (inactive)"}, {"measurement": "GI50", "setting": "Malme-3M", "result": "23.6 µM (inactive)"}, {"measurement": "GI50", "setting": "CCRF-CEM", "result": "41 µM (inactive)"}, {"measurement": "GI50", "setting": "SN12C", "result": "58.5 µM (inactive)"}, {"measurement": "GI50", "setting": "HOP-62", "result": "> 100 µM (inactive)"}, {"measurement": "GI50", "setting": "A498", "result": "> 100 µM (inactive)"}, {"measurement": "GI50", "setting": "COLO 205", "result": "> 100 µM (inactive)"}, {"measurement": "GI50", "setting": "A549", "result": "> 100 µM (inactive)"}, {"measurement": "GI50", "setting": "HCT-15", "result": "> 100", "unit": "µM"}, {"measurement": "GI50", "setting": "UACC-257", "result": "71.3 µM (inactive)"}, {"measurement": "GI50", "setting": "DU-145", "result": "> 100 µM (inactive)"}, {"measurement": "GI50", "setting": "NCI-H522", "result": "29.4 µM (inactive)"}, {"measurement": "GI50", "setting": "LOX IMVI", "result": "32.1 µM (inactive)"}, {"measurement": "GI50", "setting": "SNB-19", "result": "66.2 µM (inactive)"}, {"measurement": "GI50", "setting": "IGROV-1", "result": "42.2 µM (inactive)"}, {"measurement": "GI50", "setting": "SNB-75", "result": "51.4 µM (inactive)"}, {"measurement": "GI50", "setting": "SF-295", "result": "> 100 µM (inactive)"}, {"measurement": "GI50", "setting": "SK-MEL-28", "result": "71.6 µM (inactive)"}, {"measurement": "GI50", "setting": "SK-MEL-5", "result": "43.2 µM (inactive)"}, {"measurement": "GI50", "setting": "HT-29", "result": "> 100 µM (inactive)"}, {"measurement": "GI50", "setting": "MDA-MB-435", "result": "55.6 µM (inactive)"}, {"measurement": "GI50", "setting": "UO-31", "result": "> 100 µM (inactive)"}, {"measurement": "GI50", "setting": "RXF 393", "result": "32.1 µM (inactive)"}, {"measurement": "GI50", "setting": "SK-OV-3", "result": "> 100 µM (inactive)"}, {"measurement": "GI50", "setting": "HCT-116", "result": "49.2 µM (inactive)"}, {"measurement": "GI50", "setting": "HOP-92", "result": "28.1 µM (inactive)"}, {"measurement": "GI50", "setting": "ACHN", "result": "> 100 µM (inactive)"}, {"measurement": "GI50", "setting": "OVCAR-4", "result": "57.3 µM (inactive)"}, {"measurement": "GI50", "setting": "786-0", "result": "> 100 µM (inactive)"}, {"measurement": "GI50", "setting": "OVCAR-5", "result": "> 100 µM (inactive)"}, {"measurement": "GI50", "setting": "KM12", "result": "94 µM (inactive)"}, {"measurement": "GI50", "setting": "SF-268", "result": "18.7 µM (inactive)"}, {"measurement": "GI50", "setting": "U-251", "result": "45.4 µM (inactive)"}, {"measurement": "GI50", "setting": "PC-3", "result": "66.8 µM (inactive)"}, {"measurement": "GI50", "setting": "UACC-62", "result": "25.3 µM (inactive)"}, {"measurement": "GI50", "setting": "NCI-H23", "result": "34.8 µM (inactive)"}, {"measurement": "GI50", "setting": "OVCAR-3", "result": "> 100 µM (inactive)"}, {"measurement": "GI50", "setting": "NCI-H460", "result": "> 100 µM (inactive)"}, {"measurement": "GI50", "setting": "SR", "result": "39.5 µM (inactive)"}, {"measurement": "GI50", "setting": "T47D", "result": "45.8 µM (inactive)"}, {"measurement": "GI50", "setting": "MDA-MB-231", "result": "29.8 µM (inactive)"}, {"measurement": "GI50", "setting": "K562", "result": "64.9 µM (inactive)"}, {"measurement": "GI50", "setting": "MDA-N", "result": "43.1 µM (inactive)"}, {"measurement": "GI50", "setting": "CAKI-1", "result": "> 100 µM (inactive)"}]}]}
